Among the data in US20180244625A1, “FUNGICIDAL COMPOSITIONS” (Syngenta Participations AG, priority 2015, published 2018) are inhibition values, retold here.

The subject of the experiment is Uncinula necator. Description: Uncinula necator/Grape (powdery mildew on grape), preventive spray test on grape seedlings. Conditions: Erysiphe necator. Type of experiment: in vivo. The text has this: A synergistic effect exists whenever the action of an active ingredient combination is greater than the sum of the actions of the individual components. The action to be expected E for a given active ingredient combination obeys the so-called COLBY formula and can be calculated as follows (COLBY, S. R. “Calculating synergistic and antagonistic responses of herbicide combination”, Weeds, Vol. 15, pages 20-22; 1967): ppm=milligrams of active ingredient (=a.i.) per liter of spray mixture X=% action by active ingredient (A) using p ppm of active ingredient Y=% action by active ingredient (B) using q ppm of active ingredient. According to COLBY, the expected (additive) action of active ingredients (A)+(B) using p+q ppm of active ingredient is [formula] If the action actually observed (O) is greater than the expected action (E), then the action of the combination is super-additive, i.e. there is a synergistic effect. In mathematical terms, synergism corresponds to a positive value for the difference of (O-E). In the case of purely complementary addition of activities (expected activity), said difference (O-E) is zero. A negative value of said difference (O-E) signals a loss of activity compared to the expected activity. Uncinula necator/Grape (Powdery Mildew on Grape) Five-week-old grape seedlings cv. Gutedel were treated with the formulated testcompound in a spray chamber. One day after application grape plants were inoculated by shaking plants infected with grape powdery mildew above the test plants. After an incubation period of 7 days at 26° C. and 60% r. h. under a light regime of 14/10 h (light/dark) the disease incidence was assessed.

Like-named read-outs stand apart in the source and are kept apart here.

On to `CON(C(=O)c1cn(C)nc1C(F)F)C(C)Cc1c(Cl)cc(Cl)cc1Cl` (stereo not shown) [Compound 1.001, 3-(difluoromethyl)-N-methoxy-1-methyl-N-[1-methyl-2-(2,4,6-trichlorophenyl)ethyl]pyrazole-4-carboxamide], for which, where the note is “168 h, Compound 1.001 0.1 mg/l alone, grape seedlings cv. Gutedel, 7 days after inoculation”, the inhibition at 0.1 µg/mL was 90.4%. Also, the inhibition at 10 pg/mL (Compound 1.001 0.00001 mg/l alone, read-out: Compound 1.001 inhibition (%)) was 0%. Further, the inhibition at 0.0001 µg/mL (Compound 1.001 0.0001 mg/l alone, read-out: Compound 1.001 inhibition (%)) stood at 0%. For the same compound, the inhibition at 0.001 µg/mL (Compound 1.001 0.001 mg/l alone, read-out: Compound 1.001 inhibition (%)) came out at 1.7%. Moreover, the inhibition at 0.01 µg/mL (Compound 1.001 0.01 mg/l alone, read-out: Compound 1.001 inhibition (%)) amounted to 12.9%.
Consider `COc1ccccc1N1CCS/C1=C(/C#N)Sc1cc(C(F)(F)F)ccc1F` [Flutianil, (2Z)-{[2-fluoro-5-(trifluoromethyl)phenyl]sulfanyl}[3-(2-methoxyphenyl)-1,3-thiazolidin-2-ylidene]acetonitrile], for which the inhibition at 1 pg/mL (Flutianil 0.000001 mg/l alone) is 0%. The inhibition at 10 pg/mL (Flutianil 0.00001 mg/l alone, read-out: Flutianil Inhibition (%)) stood at 1.3%. The inhibition at 0.0001 µg/mL (Flutianil 0.0001 mg/l alone, read-out: Flutianil Inhibition (%)) worked out at 1%. The inhibition at 0.001 µg/mL (Flutianil 0.001 mg/l alone, read-out: Flutianil Inhibition (%)) came to 26.8%. Also, the inhibition at 0.01 µg/mL (Flutianil 0.01 mg/l alone, read-out: Flutianil Inhibition (%)) came out at 100%.

As a reminder, the inhibition is the change of the read-out against control, counted positive when it falls.
